The subject of the assay is HeLa thapsigargin-induced death, ATPlite luminescence, 24 h. Description: HeLa survival under thapsigargin ER stress – cell-based, HeLa cervical carcinoma, ATP content, SAR follow-up (AID 1356). The note with it: at 25 µM, stronger effect = higher value.
The mark [1] stands for this setting: measured here: survival at thapsigargin 15 uM.
Setting [2] is: measured here: survival at thapsigargin 20 uM.
Where [3] appears, read: measured here: survival, thapsigargin level col 9.
[4] abbreviates: measured here: survival, thapsigargin level col 10.

The record followed here is PubChem BioAssay AID1356 (Sanford-Burnham Center for Chemical Genomics, 2008).

As for `COc1ccc(C2CC(=O)C3=C(C2)Nc2ccccc2NC3c2cc(C)ccc2C)cc1` (stereo not given), the survival is 99%. Under setting [1], this compound gave a survival of 83%. Under setting [2], this compound displayed a survival of 24%. Moreover, under setting [3], the survival was 80%. The survival under setting [4] is 81%.
As for `COc1ccc(C2CC(=O)C3=C(C2)Nc2ccccc2NC3c2cccc(Br)c2)cc1OC` (stereo not given), the survival was 87%. This compound also returned a survival under setting [1] of 93%. Besides, the survival under setting [2] is 90%. The same compound came in with a survival under setting [3] of 86%. The compound further showed a survival under setting [4] of 92%.
For the compound `O=C1CC(c2ccccc2)CC2=C1C(c1c(F)cccc1Cl)Nc1ccccc1N2` (stereo not given), the survival is 118%. This compound yielded a survival under setting [1] of 89%. Also, the survival under setting [2] worked out at 18%. This compound also had a survival under setting [3] of 93%. Under setting [4], this compound gave a survival of 99%.
For `CC1(C)CC(=O)C2=C(C1)Nc1ccccc1NC2c1ccc(-c2ccccc2)cc1` (stereo not given) the same measures were 97%, 106%, 114%, 92% and 88%.
For `CCOc1cccc(C2Nc3ccccc3NC3=C2C(=O)CC(c2ccc(OC)cc2)C3)c1` (stereo not given) the same measures were 96%, 8%, 3%, 81% and 106%.
Consider `CCCOc1ccc(C2Nc3ccccc3NC3=C2C(=O)CC(c2ccc(OC)c(OC)c2)C3)cc1` (stereo not given), for which the survival was 91%. Under setting [1], the survival came out at 109%. In addition, the survival under setting [2] is 90%. Moreover, the survival under setting [3] stood at 88%. The same compound showed a survival under setting [4] of 90%.
With `COc1ccc(C2CC(=O)C3=C(C2)Nc2ccccc2NC3c2ccccc2C(F)(F)F)cc1OC` (stereo not given), the survival was 92%. Under setting [1], this compound returned a survival of 107%. Under setting [2], the survival came to 72%. Further, the survival under setting [3] came out at 93%. Also, the survival under setting [4] amounted to 91%.
As to `COc1ccc(C2CC(=O)C3=C(C2)Nc2ccccc2NC3c2cccc(Oc3ccccc3)c2)cc1OC` (stereo not given), the survival is 90%. The same compound gave a survival under setting [1] of 96%. This compound also registered a survival under setting [2] of 102%. In addition, under setting [3], the survival is 87%. Under setting [4], this compound displayed a survival of 85%.
Taken in the same sequence, the figures for `CCOc1cc(C2Nc3ccccc3NC3=C2C(=O)CC(c2ccc(OC)cc2)C3)cc(Cl)c1O` (stereo not given) were 129%, 29%, 8%, 90% and 106%.
For `CSc1ccc(C2Nc3ccccc3NC3=C2C(=O)CC(c2ccccc2)C3)cc1` (stereo not given) the same measures were 85%, 77%, 23%, 81% and 83%.
For `COc1ccc(C2CC(=O)C3=C(C2)Nc2ccccc2NC3c2cccc(C(F)(F)F)c2)cc1OC` (stereo not given) the same measures were 90%, 100%, 122%, 88% and 90%.
